From US6087337A, “Method for treating benign and malignant proliferative skin disease” (Biomeasure Inc., priority 1993, dated 2000)

Key:
B16-F10 melanoma = assay: Response of intradermally implanted B16-F10 melanoma xenografts to topically applied Somatuline BIM-23014C; type: in vivo, BALB/c derived athymic nude female mice
Description: Response of Intradermally Implanted B16-F10 Melanoma Xenografts to Topically Applied Somatuline BIM-23014C
Eighteen BALB/c derived athymic nude female mice were implanted intradermally (ID), on the right flank, with a 0.02 to 0.05 ml suspension of in vitro propagated B16-F10 melanoma cells suspended in a normal saline solution. Implantation was done with a 23 gauge needle attached to a 1.0 ml syringe on day 0. Such an intradermal implant of the murine B16-F10 melanoma is essentially orthotopic and gives rise to an extremely fast growing tumor. By day 2, flat melanotic growths were evident at the injection site. The lesions resembled in situ melanomas.
Somatuline (D-β-Nal-Cys-Tyr-D-Trp-Lys-Val-Cys-Thr-NH2, available from Biomeasure, Inc. under the product code BIM-23014C) was added to a 50% DMSO in saline solution at a concentration of 10 mgs/ml. After wiping the skin with a gauze pad wet with isopropyl alcohol, a drop (approximately 0.05 ml) of the Somatuline solution was applied to the skin surface of the mice over the melanotic lesion. The solution was rubbed into the skin for approximately 1 minute with a latex gloved (Baxter Scientific Products/Flexam) finger. Well over half of the drop of Somatuline was not absorbed and was lost after the rubbing-in procedure. The controls were treated identically with 50% DMSO in saline solution without any somatostatin analog. Topical treatments were applied twice daily for 11 days beginning on day 3 post implantation.

[1] = test system: insulin, glucagon, and growth hormone release; settings: times more potent than naturally occurring somatostatin; cited from earlier work

Compound	Tumor Wt. (mgs) Day 12 (B16-F10 melanoma; 0.05 ml topical of DMSO/Saline vehicle containing 10 mg/ml, b.i.d., q.d. 3-14, intradermal B16-F10 implant in nude mice, day 12) [mgs]	growth of the melanotic lesion (tumor growth curves FIG. 1, photographs FIG. 2, days 4, 7, 11) (B16-F10 melanoma; topical Somatuline solution 10 mgs/ml in 50% DMSO in saline, twice daily, compared to control mice)	% T/C (B16-F10 melanoma; tumor weight day 12, treated vs DMSO/Saline vehicle control, 0.05 ml topical, 10 mg/ml, b.i.d., q.d. 3-14) [%]	potency relative to naturally occurring somatostatin for the inhibition of insulin, glucagon, and growth hormone release [1]
CC(C)[C@@H]1NC(=O)[C@H](CCCCN)NC(=O)[C@@H](Cc2c[nH]c3ccccc23)NC(=O)[C@H](Cc2ccc(O)cc2)NC(=O)[C@@H](NC(=O)[C@H](N)Cc2ccc3ccccc3c2)CSSC[C@@H](C(=O)N[C@H](C(N)=O)[C@@H](C)O)NC1=O [BIM-23014C, D-β-Nal-Cys-Tyr-D-Trp-Lys-Val-Cys-Thr-NH2]	185.9 ± 47	clear growth inhibition	35	–
cyclo(N-Me-Ala-Tyr-D-Trp-Lys-Val-Phe)	–	–	–	50-100 times
